# According to PubChem BioAssay (NCI):
#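 All cell lines were grown in 96-well plates and treated with compound for 48 hours. GI50: concentration for 50% inhibition of growth. TGI marks complete inhibition of growth.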
# How the values were obtained:
# Test in all cases: DTP human tumour cell line panel, 48 h
# [1] = test system: T-47D breast
# [2] = test system: CCRF-CEM leukemia
# [3] = test system: NCI-H226 lung
# [4] = test system: SK-MEL-5 melanoma
# [5] = test system: COLO 205 colon
# [6] = test system: NCI-H460 lung
# [7] = test system: SNB-19 CNS
# [8] = test system: SF-539 CNS
# [9] = test system: SF-295 CNS
# [10] = test system: OVCAR-4 ovarian
Structure (SMILES),GI50 [1] [µM],TGI [1] [µM],GI50 [2] [µM],TGI [2] [µM],GI50 [3] [µM],TGI [3] [µM],GI50 [4] [µM],TGI [4] [µM],GI50 [5] [µM],TGI [5] [µM],GI50 [6] [µM],TGI [6] [µM],TGI [7] [µM],TGI [8] [µM],TGI [9] [µM],TGI [10] [µM],GI50 [7] [µM]
CCN1CCN(Cc2ccc(NC(=O)Nc3ccc(-n4ccc5c(NC(=O)c6ccccc6)nccc54)cc3)cc2C(F)(F)F)CC1,3.54,15.9,0.426,> 100,1.54,4.84,0.764,2.02,0.942,2.51,0.0811,1.45,–,–,–,–,–
N#C/C(=C\c1cccc(Br)c1)c1nc2ccccc2c(=O)[nH]1,–,> 100,–,> 100,–,> 100,–,> 100,–,> 100,–,> 100,> 100,> 100,> 100,> 100,–
NC(Cc1[nH]nc2ccccc12)C(=O)O (centres undefined),–,> 100,–,> 100,–,> 100,–,> 100,–,> 100,–,> 100,> 100,> 100,> 100,> 100,–
COCC#C[C@@]1(O)CCCCC1CC(OC)OC (some centres undefined),–,> 100,–,> 100,–,> 100,–,> 100,–,> 100,–,> 100,> 100,–,> 100,> 100,–
Nc1c(S(N)(=O)=O)cc(S(N)(=O)=O)cc1S(N)(=O)=O,–,> 100,–,–,–,> 100,–,> 100,–,> 100,–,> 100,> 100,–,> 100,> 100,–
Cc1cc(S(=O)(=O)Nc2n[nH]c(Nc3ccccc3)n2)c(SCC(=O)O)cc1Cl,–,> 100,–,> 100,–,> 100,–,> 100,–,> 100,–,> 100,> 100,> 100,> 100,> 100,–
O=c1c(-c2ccccc2)c(SCCN2CCCCCC2)n(-c2ccccc2)c(=S)n1-c1ccccc1,–,–,–,29.4,–,> 100,–,> 100,–,> 100,–,> 100,–,> 100,> 100,53.6,–
CCOc1ccc(N=Nc2ccc3cc(/C(C)=N/NC(=O)/C(C#N)=C\c4ccc(N(CCC#N)CCC#N)cc4)c(=O)oc3c2)cc1,–,> 10,–,> 10,–,> 10,–,> 10,–,> 10,–,> 10,> 10,> 10,> 10,> 10,–
Cn1c2c(c3ccccc31)CCN1C(=O)C34CCCC3CC21S4 (centres undefined),–,> 100,–,–,–,> 100,–,> 100,–,> 100,–,–,> 100,> 100,> 100,> 100,–
O=C(OC12CC3CC(CC(C3)C1)C2)c1ccc(NCc2cc(O)ccc2O)cc1,–,1.04,–,0.723,–,6.2,–,3.74,–,1.12,–,16.6,11.7,1.31,7.5,1.97,–
C=C1C[C@@H]2CC[C@@]34C[C@H]5O[C@H]6[C@@H](O3)[C@H]3O[C@H](CC[C@@H]3O[C@H]6[C@H]5O4)CC(=O)C[C@@H]3[C@@H](OC)[C@@H](C[C@H](O)CN)O[C@H]3C[C@H]3O[C@@H](CC[C@@H]1O2)C[C@@H](C)C3=C,–,> 1,–,–,–,0.00433,–,0.043,–,0.00193,–,0.161,> 1,0.00215,0.251,> 1,0.00127
C=C(C)[C@H]1CC(=O)/C(C)=C\CC/C(C)=C/CC[C@@]2(C)O[C@@H]2C1,–,–,–,> 100,–,–,–,45.5,–,32,–,33.1,> 100,42.2,89.8,75.3,–
CCOC(=O)/C=C(/C=C\COC1CCCCO1)c1ccccc1 (centres undefined),–,72.3,–,> 100,–,> 100,–,> 100,–,> 100,–,> 100,> 100,–,76.1,> 100,–
Oc1c(OCc2nnc(CCCCCCCCc3nnc(COc4ccc5ccccc5c4O)o3)o2)ccc2ccccc12,–,–,–,–,–,> 100,–,> 100,–,> 100,–,> 100,> 100,–,> 100,> 100,–
O=C1CC(c2ccccc2Cl)C2(C(=O)NC(=O)NC2=O)C(c2ccccc2Cl)C1 (centres undefined),–,78.2,–,> 100,–,> 100,–,> 100,–,–,–,> 100,> 100,> 100,> 100,> 100,–
COc1ccc(OC/C(N=Cc2ccncc2)=N/NC(=O)c2ccncc2)cc1,–,> 100,–,> 100,–,> 100,–,–,–,> 100,–,> 100,> 100,> 100,> 100,> 100,–
CC1CCc2sc3nc4n(c(=O)c3c2C1)CC(C)S4 (centres undefined),–,> 100,–,–,–,63.8,–,34.4,–,39.3,–,65.2,88.6,–,52.6,> 100,–
Cc1cccc(NS(=O)(=O)c2ccc(N=Nc3c(O)c(C(=O)O)cc4ccccc34)cc2)n1,–,–,–,> 100,–,> 100,–,> 100,–,> 100,–,> 100,> 100,> 100,> 100,> 100,–
O=C(O)C1=NN(c2ccc(S(=O)(=O)O)cc2)C2(C1)C(Cl)C(=O)N2c1nc2ccccc2s1 (centres undefined),–,44.8,–,–,–,41.4,–,25.6,–,35.1,–,33.2,64.8,12.6,32.3,35.3,–
NCCN(CCN(C(=O)Nc1ccccc1)c1ccccc1)C(=O)Nc1ccccc1,–,90.8,–,> 100,–,98.6,–,43.1,–,67.4,–,42.8,> 100,–,36.4,–,–
CCOC(=O)Cn1nnc2cc(Nc3c(C)[n+]([O-])c4cc(F)c(OCC)cc4[n+]3[O-])ccc21,–,> 100,–,> 100,–,> 100,–,> 100,–,–,–,> 100,–,> 100,> 100,> 100,–
